Entries after “also recorded” stand apart in the source; their conditions may differ. Like-named read-outs stand apart in the source and are kept apart here.
What was measured:
Olfr31 = target: T1, Olfr31 (Mus musculus, UniProt Q3KPA7); assay: dual-luciferase (cAMP/CREB reporter) ligand screen, Olfr31 in HEK293T cells; format: cell-based; conditions: chemicals tested individually, screened at 500uM (* also at 100uM)
T1 construct: expressed in transfected cells; host or cells: HEK293T, co-transfected with RTP1S
T1 sequence (Q3KPA7 1-317): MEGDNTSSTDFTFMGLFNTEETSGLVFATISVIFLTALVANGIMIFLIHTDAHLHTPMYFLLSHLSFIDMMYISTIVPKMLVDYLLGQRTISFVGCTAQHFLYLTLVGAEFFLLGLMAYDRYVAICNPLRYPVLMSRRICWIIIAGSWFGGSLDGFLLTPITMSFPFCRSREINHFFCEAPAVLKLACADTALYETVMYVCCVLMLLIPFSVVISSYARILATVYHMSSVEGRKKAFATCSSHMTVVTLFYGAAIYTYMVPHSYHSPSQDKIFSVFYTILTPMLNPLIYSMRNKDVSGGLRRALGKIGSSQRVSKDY

Olfr545 = assay: dual-luciferase (cAMP/CREB reporter) ligand screen, Olfr545 in HEK293T cells; format: cell-based, mouse; design: key to Olfr545 response in dual-luciferase assay: ‘+’ or ‘–‘ in each column indicates if the olfactory receptor responded or had no effect to that specific chemical; -: ‘+’ or ‘–‘ in each column indicates if the olfactory receptor responded or had no effect to that specific chemical; conditions: for Olfr545 response in dual-luciferase assay: chemicals tested individually, screened at 500uM (* also at 100uM)
Olfr691 [1] = target: T2, Olfr691 (Mus musculus, UniProt Q8VGW5); assay: dual-luciferase (cAMP/CREB reporter) ligand screen, Olfr691 in HEK293T cells; format: cell-based; conditions: for Olfr691 response in dual-luciferase assay: chemicals tested individually, screened at 500uM (* also at 100uM); for Relative response (% of 4-pentenoate response) at 500 µM: HEK-293T, 4 h; for EC50: Olfr691 co-expressed with RTP1S in HEK293T cells, 10 µM to 7.5 mM
T2 construct: Lucy (N); expressed in transfected cells; host or cells: HEK293T, co-transfected with RTP1S
T2 sequence (Q8VGW5 1-322): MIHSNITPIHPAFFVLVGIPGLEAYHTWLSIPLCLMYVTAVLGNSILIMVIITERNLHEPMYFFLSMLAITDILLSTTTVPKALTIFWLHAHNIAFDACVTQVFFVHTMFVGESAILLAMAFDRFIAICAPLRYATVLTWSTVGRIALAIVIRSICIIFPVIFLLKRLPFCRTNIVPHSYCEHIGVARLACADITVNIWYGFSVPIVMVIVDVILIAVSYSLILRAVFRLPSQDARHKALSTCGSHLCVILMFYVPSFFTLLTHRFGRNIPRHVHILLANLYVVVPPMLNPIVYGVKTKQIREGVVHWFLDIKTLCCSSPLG

Olfr99 = assay: dual-luciferase (cAMP/CREB reporter) ligand screen, Olfr99 in HEK293T cells; format: cell-based, mouse; design: key: ‘+’ or ‘–‘ in each column indicates if the olfactory receptor responded or had no effect to that specific chemical; -: ‘+’ or ‘–‘ in each column indicates if the olfactory receptor responded or had no effect to that specific chemical; conditions: chemicals tested individually, screened at 500uM (* also at 100uM)
Olfr693 = assay: dual-luciferase (cAMP/CREB reporter) ligand screen, Olfr693 in HEK293T cells; format: cell-based, mouse; design: key: ‘+’ or ‘–‘ in each column indicates if the olfactory receptor responded or had no effect to that specific chemical; -: ‘+’ or ‘–‘ in each column indicates if the olfactory receptor responded or had no effect to that specific chemical; conditions: chemicals tested individually, screened at 500uM (* also at 100uM)
Olfr691 [2] = target: T2, Olfr691; design: method as in PMID 15550249; conditions: cited from earlier work
[3] = design: method as in PMID 20304335, PMID 15230715; conditions: patients treated with valproate as an antiepileptic drug; cited from earlier work
[4] = 0.5 mM ligand, normalized to the response of Olfr691 to the strongest ligand, 4-pentenoate
[5] = luciferase assay, co-expressed with RTP1S

With `CC(O)C(=O)O` (stereo not drawn) [lactic acid] the “Olfr31 response in dual-luciferase assay” value (Olfr31) was “-”, the “Olfr545 response in dual-luciferase assay” value (Olfr545) was “-” and the “Olfr691 response in dual-luciferase assay” value (Olfr691 [1]) was “-”. The “Olfr99 response in dual-luciferase assay” value (Olfr99) was “-” and the “Olfr693 response in dual-luciferase assay” value (from here on “Olfr693 response”) (Olfr693) was “-”.

With `C=CC(C)(O)CCC=C(C)C` (stereo not drawn) [linalool] the “Olfr31 response in dual-luciferase assay” value (Olfr31) was “-”, the “Olfr545 response in dual-luciferase assay” value (Olfr545) was “-” and the “Olfr691 response in dual-luciferase assay” value (Olfr691 [1]) was “-”. The “Olfr99 response in dual-luciferase assay” value (Olfr99) was “-” and the “Olfr693 response” value (Olfr693) was “-”.

In the case of `CC(=O)c1c(C)c([N+](=O)[O-])c(C(C)(C)C)c([N+](=O)[O-])c1C` [musk ketone], the “Olfr31 response in dual-luciferase assay” value (Olfr31) is reported as “-”, the “Olfr545 response in dual-luciferase assay” value (Olfr545) is reported as “-” and the “Olfr691 response in dual-luciferase assay” value (Olfr691 [1]) is reported as “-”. The “Olfr99 response in dual-luciferase assay” value (Olfr99) was “-” and the “Olfr693 response” value (Olfr693) was “-”.

For `CCCCC=O` [n-valeraldehyde], the “Olfr31 response in dual-luciferase assay” value (Olfr31) is listed as “-”, the “previously reported ligand of Olfr691” value (Olfr691 [2]; listed as pentanal) is listed as “previously reported” and the “Olfr545 response in dual-luciferase assay” value (Olfr545) is listed as “-”. The “Olfr691 response in dual-luciferase assay” value (Olfr691 [1]) was “-”, the “Olfr691 response (in words)” value (Olfr691 [1]; luciferase assay, co-expressed with RTP1S, listed as pentanal) was “did not induce a response” and the “Olfr99 response in dual-luciferase assay” value (Olfr99) was “-”. The “Olfr693 response” value (Olfr693) was “-”.

For `CCCCCCCCC=O` [nonanal], the “Olfr31 response in dual-luciferase assay” value (Olfr31) was “-”, the “Olfr545 response in dual-luciferase assay” value (Olfr545) was “-” and the “Olfr691 response in dual-luciferase assay” value (Olfr691 [1]) was “-”. For the same compound, the “Olfr99 response in dual-luciferase assay” value (Olfr99) was “-” and the “Olfr693 response” value (Olfr693) was “-”.

With `CCCCCCCCC(=O)O` [nonanoic acid] the “Olfr31 response in dual-luciferase assay” value (Olfr31) was “-”, the “Olfr545 response in dual-luciferase assay” value (Olfr545) was “-” and the “Olfr691 response in dual-luciferase assay” value (Olfr691 [1]) was “-”. The “Olfr99 response in dual-luciferase assay” value (Olfr99) was “-” and the “Olfr693 response” value (Olfr693) was “-”.

For `CC1(C)C2CCC(=O)C1C2` (stereo not drawn) [nopinone], the “Olfr31 response in dual-luciferase assay” value (Olfr31) was “-”, the “Olfr545 response in dual-luciferase assay” value (Olfr545) was “-” and the “Olfr691 response in dual-luciferase assay” value (Olfr691 [1]) was “-”. For the same compound, the “Olfr99 response in dual-luciferase assay” value (Olfr99) was “-” and the “Olfr693 response” value (Olfr693) was “-”.

With `O=C1CC2CC[C@H]1C2` [norcamphor] the “Olfr31 response in dual-luciferase assay” value (Olfr31) was “-”, the “Olfr545 response in dual-luciferase assay” value (Olfr545) was “-” and the “Olfr691 response in dual-luciferase assay” value (Olfr691 [1]) was “-”. For the same compound, the “Olfr99 response in dual-luciferase assay” value (Olfr99) was “-” and the “Olfr693 response” value (Olfr693) was “-”.

For `CCCCCCCC(=O)O` [octanoic acid], the “Olfr31 response in dual-luciferase assay” value (Olfr31) was “-”, the “Olfr545 response in dual-luciferase assay” value (Olfr545) was “-” and the “Olfr691 response (in words)” value (Olfr691 [1]) was “responds”. The Relative response (% of 4-pentenoate response) at 500 µM (Olfr691 [1]; [4]) was 20 ± 0.9%, the “Olfr691 response in dual-luciferase assay” value (Olfr691 [1]) was “+” and the “Olfr99 response in dual-luciferase assay” value (Olfr99) was “-”. For the same compound, the “Olfr693 response” value (Olfr693) was “-”.

For `O=C1CCCCCCCCCCCCCCO1` [omega-pentadecalactone], the “Olfr31 response in dual-luciferase assay” value (Olfr31) was “-”, the “Olfr545 response in dual-luciferase assay” value (Olfr545) was “-” and the “Olfr691 response in dual-luciferase assay” value (Olfr691 [1]) was “-”. The “Olfr99 response in dual-luciferase assay” value (Olfr99) was “-” and the “Olfr693 response” value (Olfr693) was “-”.

In the case of `CC(C)C(=O)OCCc1ccccc1` [phenyl ethyl isobutyrate], the “Olfr31 response in dual-luciferase assay” value (Olfr31) is reported as “-”, the “Olfr545 response in dual-luciferase assay” value (Olfr545) is reported as “-” and the “Olfr691 response in dual-luciferase assay” value (Olfr691 [1]) is reported as “-”. The “Olfr99 response in dual-luciferase assay” value (Olfr99) was “-” and the “Olfr693 response” value (Olfr693) was “-”.

In the case of `CCC(=O)O` [propionate], the “Olfr31 response in dual-luciferase assay” value (Olfr31) is reported as “-”, the “Olfr545 response in dual-luciferase assay” value (Olfr545) is reported as “-” and the “Relative response at 0.5mM” value (Olfr691 [1]; [4]) is reported as 42 ± 3.1. The “Olfr691 response in dual-luciferase assay” value (Olfr691 [1]) was “+”, the “Olfr691 response (in words)” value (Olfr691 [1]; [5]) was “responds” and the “Olfr99 response in dual-luciferase assay” value (Olfr99) was “-”. The “Olfr693 response” value (Olfr693) was “-”.

With `O=C(O)CCCCCCCCC(=O)O` [sebacic acid] the “Olfr31 response in dual-luciferase assay” value (Olfr31) was “-”, the “Olfr545 response in dual-luciferase assay” value (Olfr545) was “-” and the “Olfr545 response (in words)” value (Olfr545; luciferase assay) was “did not induce a response”. For the same compound, the “Olfr691 response in dual-luciferase assay” value (Olfr691 [1]) was “-”, the “Olfr99 response in dual-luciferase assay” value (Olfr99) was “-” and the “Olfr693 response” value (Olfr693) was “-”.

With `CCCCC/C=C/CO` [trans-2-octen-1-ol] the “Olfr31 response in dual-luciferase assay” value (Olfr31) was “-”, the “Olfr545 response in dual-luciferase assay” value (Olfr545) was “-” and the “Olfr691 response in dual-luciferase assay” value (Olfr691 [1]) was “-”. The “Olfr99 response in dual-luciferase assay” value (Olfr99) was “-” and the “Olfr693 response” value (Olfr693) was “-”.

For `CCCCC(=O)O` [valerate], the “Olfr31 response in dual-luciferase assay” value (Olfr31) is listed as “-”, the “previously reported ligand of Olfr691” value (Olfr691 [2]) is listed as “previously reported” and the “Olfr545 response in dual-luciferase assay” value (Olfr545) is listed as “-”. The Relative response (% of 4-pentenoate response) at 500 µM (Olfr691 [1]; [4]) was 98 ± 5.7%, the EC50 (Olfr691 [1]) was 852 µM and the “Olfr691 response in dual-luciferase assay” value (Olfr691 [1]) was “+”. For the same compound, the “Olfr691 response (in words)” value (Olfr691 [1]; [5]) was “dose dependent manner; also recorded: able to confirm”, the “Olfr99 response in dual-luciferase assay” value (Olfr99) was “-” and the “Olfr693 response” value (Olfr693) was “-”.

In the case of `CCCC(CCC)C(=O)O` [valproate, reference compound], the “Olfr545 response in dual-luciferase assay” value (Olfr545) is given as “-”, the “renal adverse effect in patients” value [3] is given as “develop Fanconi syndrome” and the Relative response (% of 4-pentenoate response) at 500 µM (Olfr691 [1]; [4]) is given as 98 ± 5%. The EC50 (Olfr691 [1]) was 478 µM, the “Olfr691 response in dual-luciferase assay” value (Olfr691 [1]) was “+” and the “Olfr691 response (in words)” value (Olfr691 [1]; [5]) was “highest affinity”. The “Olfr99 response in dual-luciferase assay” value (Olfr99) was “-” and the “Olfr693 response” value (Olfr693) was “-”.

With Myrtenal the “Olfr31 response in dual-luciferase assay” value (Olfr31) was “-”, the “Olfr545 response in dual-luciferase assay” value (Olfr545) was “-” and the “Olfr691 response in dual-luciferase assay” value (Olfr691 [1]) was “-”. For the same compound, the “Olfr99 response in dual-luciferase assay” value (Olfr99) was “-” and the “Olfr693 response” value (Olfr693) was “-”.

Reference: paper PMC4207771, “Identification and Characterization of Novel Renal Sensory Receptors” (PLoS ONE, 2014)
